The subject of test [1] is H9c2 cells. The experiment in a line: cAMP assay (cAMP-Glo Max Assay Kit). As to conditions: for effect of antagonist on CST lowering of isoproterenol-induced cAMP / effect of antagonist on CST lowering of forskolin-induced cAMP: AF-DX116 100 nM or himbacine 1 μM 20 min; for effect of antagonist on CST lowering of isoproterenol-induced cAMP: then CST 50 nM with isoproterenol 1 μM; for effect of antagonist alone on increased cAMP level with isoproterenol: AF-DX116 100 nM or himbacine 1 μM, 20 min pretreatment, isoproterenol 1 μM; for effect of antagonist on CST lowering of forskolin-induced cAMP: pirenzepine 1 μM, then CST 50 nM with forskolin 100 μM. It is filed as cell-based, rat. Here is the method: H9c2 cells were subcultured at 1 x 10^4 cells in 96-well plates. Cell were pretreated with […]
pirenzepine (1 μM), AF-DX116 (100 nM) or himbacine (1 μM) for 20 min, then incubated with CST (50 nM) or carbamoylcholine (100 μM) along with isoproterenol (1 μM) or forskolin (100 μM) for 30 min. Cell underwent cAMP assay with the cAMP-Glo Max Assay
(In general: Changes in cAMP serve as a functional read-out for many G protein-coupled receptors.)

For test [2], the system named is isolated heart. Kind of test: Langendorff-perfused heart, global ischemia/reperfusion (I/R) with CST pretreatment. The arrangement: species or system rat. As to conditions: AF-DX116 pretreating for 20 min before CP, then I/R. How it is done:
Rats fed a standard diet were heparinized (200 IU) and anesthetized with sodium pentobarbital (50 mg/kg, intraperitoneally). Hearts were excised and rapidly moved to a Langendorff perfusion system as described. After 30-min stabilization, hearts underwent 30-min normoxia, zero-flow global ischemia for 30 min, followed by 60-min reperfusion (I/R group). For the CP group, CST (100 nM) was infused for 15 min before ischemia (Fig. 1A). Cardiac function including left ventricular end diastolic pressure (LVEDP), LV systolic pressure (LVSP), and maximal and minimal LV pressure development (±dp/dtmax) were recorded. […] Images in each slice were analyzed by image pro plus software. The volume of infarcted tissue (white) and the risk zone (total) was then calculated by each area […] slice thickness and summing the results. The infarct size was expressed as the percentage of the risk zone[36]. Total 12 rats were sacrificed for the infarct size assay. Other rats, while finished I/R procedure, the apex of heart (about 100 mg) was quickly removed for western blot assay. The residual heart were cut about 5 mm high (from the site of apex), embedded with OCT then the frozen slice were prepared for apoptosis staining (Methods of western blot and apoptosis assay are available in the Supplementary methods online).

Test [3] concerns the target M2 receptors. Particulars: no reference given; cited from earlier work. Here is the method: To investigate the interaction of CST with M2 receptor and as an endogenous ligand, we used radioactive isotope [^125-I]-labeled CST (0.4 μM) as a ligand, and N-methylscopolamine (NMS:0.045 nM to 0.3 μM) as a “cold” ligand were co-incubated with membrane protein (200 μg) in H9c2 cardiomyblasts.

The target of test [4] is M2 receptor. As to conditions: read-out: KD values, binding ability to M2 receptor; cited from earlier work. An excerpt:
Muscarinic receptor expression is abundant in ventricular muscle. Acetylcholine has protective role in cardiac I/R in vitro, but it is non-selective ligand and activates all cholinergic receptor subtype, which limited its application due to enormous side effects. Here we identified that CST is a selective ligand of M2 receptor with high affinity and its intracellular signal (cAMP, PI3 K and ERK1/2) is consistent with M2 receptor agonist.

Test [5] concerns H9c2 cardiomyoblasts. The experiment in a line: Apoptosis (cleaved caspase-3 staining) in cells under A/R or ER stress inducers. The test is classed as cell-based, rat. Particulars: PD98059 20 μM or wortmannin 10 nM for 30 min, then CST 100 nM 30 min. How it is done:
H9c2 rat cardiomyoblasts or neonatal cardiomyocytes were cultured in DMEM with 10% fetal bovine serum (FBS) and 1% penicillin/streptomycin at 37 °C, 5% CO2. Medium was changed to fresh medium (serum-free), and cells were cultured under anoxia with 95% N2 and 5% CO2 for 12 h at 37 °C, then incubated in a standard incubator for 4 h (A/R)[38]. […] page 1: Catestatin attenuates endoplasmic reticulum induced cell apoptosis by activation type 2 muscarinic acetylcholine receptor in cardiac ischemia/reperfusion Feng Liao1*, Yang Zheng1*, Junyan Cai1, Jinghui Fan1, Jing Wang1, Jichun Yang1,2, Qinghua Cui1,2, Guoheng Xu1, Chaoshu Tang1, Bin Geng1,2 1. Department of Physiology and Pathophysiology, School of Basic Medical Science, Peking University, P.R. China. 2. Center for Noncoding RNA Medicine, Peking University Health Science Center Online Methods 1. Western blot analysis Cultured H9c2 cells or rat hearts were lysed in RIPA lysis buffer (Cell Signaling). Proteins were denatured and 50 μg protein was loaded and isolated by SDS-PAGE electrophoresis, then transferred to a nitrocellulose membrane. […] The antigens were detected by the chemiluminescence method (ECL western blot detection kit, Applygen) with horseradish peroxidase-linked anti-mouse or anti-rabbit secondary antibody. […] Images were captured by fluorescence microscopy and apoptotic cells were analyzed by use of Image-Pro Plus. […]

In test [6] the test system is ischemic-reperfused rat heart. Particulars: peptide 100 nM treatment for 2 h during reperfusion phase; cited from earlier work. How it is done: Firstly we identified the endogenous CST reducing after I/R, but its precursor ChgA expression were no changes. That means increased enzymes (which catalyzed ChgA to generate CST) activity during I/R, although the enzymes were not identified until now. CST pretreatment compensated to endogenous CST decrease, thus lowered the infarct size and improved cardiac function in rats under I/R, which agreed with studies of CST post-conditioning[16][17]. However, human wild type CST (100 nM) treatment for 2 h during reperfusion phase increased, but Gly^364Ser variant peptide lowered infarct size; becaus ...

The target in test [7] is T1, M2 muscarinic acetylcholine receptor (Rattus norvegicus, UniProt P10980).
T1 chain: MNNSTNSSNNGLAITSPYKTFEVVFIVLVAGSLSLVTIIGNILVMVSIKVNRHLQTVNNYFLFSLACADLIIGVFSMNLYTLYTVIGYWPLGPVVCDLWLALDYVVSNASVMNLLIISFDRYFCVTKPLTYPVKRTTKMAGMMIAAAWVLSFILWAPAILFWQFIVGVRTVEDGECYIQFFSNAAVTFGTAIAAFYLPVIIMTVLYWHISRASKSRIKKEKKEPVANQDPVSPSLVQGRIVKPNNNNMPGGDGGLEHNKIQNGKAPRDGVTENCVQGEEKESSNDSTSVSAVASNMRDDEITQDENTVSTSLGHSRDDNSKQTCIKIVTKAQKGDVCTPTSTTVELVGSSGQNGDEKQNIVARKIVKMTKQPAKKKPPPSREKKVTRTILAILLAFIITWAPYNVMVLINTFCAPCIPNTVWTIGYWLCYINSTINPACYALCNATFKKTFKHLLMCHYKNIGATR
The experiment in a line: radioligand competition binding.

Test [8] addresses T1, M2 muscarinic acetylcholine receptor. Kind of test: radioligand binding (Scatchard).

Broadly, the IC50 is the concentration needed to halve the response being measured. The Kd is the constant that tells how readily two partners part at equilibrium.

As to `CCN(CC)CC1CCCCN1CC(=O)N1c2ccccc2C(=O)Nc2cccnc21` (centres unmarked) [AF-DX116, Otenzepad], in test [1], the “effect of antagonist on CST lowering of isoproterenol-induced cAMP” value was “blocked”, the “effect of antagonist alone on increased cAMP level with isoproterenol” value is on record as “did not affect” and the “effect of antagonist on CST lowering of forskolin-induced cAMP” value was “blocked”. In addition, the “effect on the protective effects of CP on infarct size, LDH leakage and cTNI level” value in test [2] was “blocked”. Besides, in test [3], the IC50 was 50 nM.

Take `COc1ccc2cc3[n+](cc2c1OC)CCc1cc2c(cc1-3)OCO2` [Berberine]: the Kd in test [4] was 5400 nM.

Regarding `COc1cccc(-c2cc(=O)c3ccccc3o2)c1N` [PD98059], the “effect of inhibitor on CST protection on cell apoptosis” value in test [5] is given as “reversed”.

Consider `C[N+](C)(C)CCOC(N)=O` [carbamoylcholine], for which the “cAMP level induced by isoproterenol” value in test [1] (CST 50 nM or carbamoylcholine 100 μM with isoproterenol 1 μM for 30 min) was “lowered”.

For the molecule `C[C@@H]1OC(=O)[C@H]2C[C@H]3CCCC[C@@H]3[C@@H](/C=C/[C@H]3CCC[C@H](C)N3C)[C@@H]12` [himbacine], in test [1], the “effect of antagonist on CST lowering of isoproterenol-induced cAMP” value is “blocked”, the “effect of antagonist alone on increased cAMP level with isoproterenol” value was “did not affect” and the “effect of antagonist on CST lowering of forskolin-induced cAMP” value is “blocked”.

`COC[C@H]1OC(=O)c2coc3c2[C@@]1(C)C1=C(C3=O)[C@@H]2CCC(=O)[C@@]2(C)C[C@H]1OC(C)=O` [wortmannin]: the “effect of inhibitor on CST protection on cell apoptosis” value in test [5] is listed as “reversed”.

With “Gly^364Ser variant peptide: Gly364Ser variant of human catestatin”, the infarct size entry in test [6] is reported as “lowered”.

For the molecule SSMKLSFRARGYGFRGPGPQL (AF-DX116 50 nM), the IC50 in test [7] is 36 nM. Binding in test [8] was characterised by a dissociation constant (Kd) of 45.8 nM.

Consider SSMKLSFRARGYGFRGPGPQL, for which, in test [7], the IC50 was 25.7 nM. The molecule also yielded a Kd in test [8] of 18.6 nM.

Values taken from paper PMC4645123, “Catestatin attenuates endoplasmic reticulum induced cell apoptosis by activation type 2 muscarinic acetylcholine receptor in cardiac ischemia/reperfusion” (Scientific Reports, 2015).
